Patent publication US8748407B2 (The Research Foundation for the State University of New York, priority 2010, dated 2014)

How the values were obtained:
GluA2Qflip [1] = target: T1, GluA2Qflip (Rattus norvegicus, UniProt P19491); assay: Whole-cell current recording, GluA2Qflip in HEK-293 cells; format: cell-based
T1 construct: expressed in transfected cells; host or cells: HEK-293S
Description: (§1) The original cDNAs in pBlueScript encoding rat GluA1, 2 and 3 AMPA receptors and GluK2 kainate receptor were kindly provided by Steve Heinemann. The GluA4 DNA plasmid was kindly provided by Peter Seeburg. The GluK1 plasmid was kindly provided by Geoffrey Swanson. The cDNAs of all three NMDA receptor subunits were gifts from John Woodward. All DNA plasmids were propagated using Escherichia coli host (DH5α) and purified using QIAGEN DNA purification kits.
(§2) All of the receptors were transiently expressed in HEK-293S cell. HEK-293S cells were maintained in Dulbecco's modified Eagle's medium (DMEM) supplemented with 10% fetal bovine serum and 1% penicillin in a 37° C., 5% CO2, humidified incubator. Receptors were transiently transfected by using calcium phosphate or lipofectamine 2000 (Invitrogen). The DNA plasmids encoding green fluorescent protein (GFP) and T-antigen (TAg) were cotransfected in HEK-293 S cells. GFP was used as a transfection marker for cell recording, and TAg was cotransfected to potentiate the receptor expression at the single-cell level^6. Transfected cells were allowed to grow for 48 hour before they were used for recording.
The procedure for whole-cell current recording to assay the inhibitory property of an RNA aptamer is known to those of skill in the art and has been previously described^7. […] The extracellular buffer composition is described above (see “Receptor Preparation”). For recording of the NMDA channels, the intracellualr solution contained (in mM) 140 CsCl, 1 MgCl2, 0.1 EGTA, and 10 HEPES (pH 7.2 adjusted by […]), while the extracellular solution contained (in mM) 135 NaCl, 5.4 KCl, 1.8 CaCl2, 10 glucose and 5 HEPES (pH 7.2 adjusted by NaOH). In the extracellular buffer, 2 μM of glycine was added (glycine was the co-agonist of NMDA receptor)^2. All reagents including aptamer were dissolved in the corresponding extracellular buffer and used. […] The whole-cell current was recorded using an Axopatch-200B amplifier at a cutoff frequency of 2-20 kHz by a built-in, eight-pole Bessel filter and digitized at 5-50 kHz sampling frequency using a Digidata 1322A from Axon Instruments (Molecular Devices, Sunnyvale, Calif.). The pClamp 8 software (Molecular Devices) was used for data acquisition. All whole-cell recordings were at −60 mV and 22° C.
To deliver AG56 to a HEK-293 cell, a “Ψ”-shaped flow device was used. […] In all experiments reported in this study, a 6-second preincubation flow protocol was used for full aptamer preincubation. […] The corrected current amplitude was used for data analysis.
Determination of KI,app by the ratio of the current amplitude in the absence and presence of inhibitor or A/A(I)—see FIG. 5 in the text. Equ. 10a and 10b were derived based on one inhibitor binding to the receptor. KI, app is the apparent inhibition constant for the inhibitor; other terms have been defined previously.
Under this condition, the inhibition constant for the closed-channel conformation was determined from the ratio of the amplitude according to equ. 10a and 10b. Likewise, at a saturating ligand concentration (i.e., L>>K1), the majority of the receptors were in the open-channel state. Consequently, the inhibition constant associated with the open-channel conformation was measured. The basis of using the two ligand concentrations that corresponded to ˜4% and ˜96% fraction of the open-channel receptor form^7 to determine the corresponding inhibition constant was a putative difference in inhibition constant between the closed-channel and the open-channel conformation. At those low and high ligand concentrations^7, the apparent inhibition constants obtained were considered pertinent to the closed-channel and the open-channel conformations, respectively. Examples of using the current amplitude to determine the inhibition constant for an inhibitor include our previous study of two 2,3-benzodiazepine derivatives with the GluA2Qflip AMPA receptor^15.

GluA1 = target: T2, GluA1 (Rattus norvegicus, UniProt P19490); assay: Whole-cell current recording, GluA1; format: cell-based
T2 construct: expressed in transfected cells; host or cells: HEK-293S
Description: as §1
as §2, with “GFP was used as a transfection marker for cell recording, and TAg was cotransfected to potentiate the receptor expression at the single-cell level^6. Transfected cells were allowed to grow for 48 hour before they were used for recording.” left out
(§3) The procedure for whole-cell current recording to assay the inhibitory property of an RNA aptamer is known to those of skill in the art and has been previously described^7. […] The whole-cell current was recorded using an Axopatch-200B amplifier at a cutoff frequency of 2-20 kHz by a built-in, eight-pole Bessel filter and digitized at 5-50 kHz sampling frequency using a Digidata 1322A from Axon Instruments (Molecular Devices, Sunnyvale, Calif.). […]

GluA2Qflip [2] = target: T1, GluA2Qflip; assay: Homologous competitive binding assay (32P-labeled aptamer, membrane-bound receptor)
Method: Whether AG56 bound to the close-channel state or conformation, and if so, the affinity of binding were assayed by homologous competitive binding assay using ^32P-label^4. To do this, RNA was first dephosphorylated by using calf intestinal phosphatase (CIP), prior to the 5′-end ^32P-labeling^5. Labeled RNA was passed through a NucAway spin column (Applied Biosystem) to remove excess γ-^32P-ATP. Then, 1 μl of 10 nM of ^32P-labeled aptamer was mixed with 2 μg of yeast tRNA (Sigma) and a series of concentrations of unlabeled (cold) aptamer whose concentrations varied from 0-400 nM in the final reaction mix. The mixed aptamer sample was incubated first at 70° C. for 10 min and then at room temperature for 20 min, before mixed with the receptor. For receptor preparation, […] of the membrane-bound receptor was resuspended in 1× extracellular buffer with and without 1 mM of kainate (which corresponded to the open-channel state and the closed-channel state, respectively; for the latter, it corresponded to precisely the unliganded, closed-channel state). The final concentration for the receptor and for the hot aptamer, after mixing, was 0.4 nM and 0.1 nM, respectively. The mixture was incubated at 22° C. for 1 hour for binding. […] The radioactivity on the filter was quantified in a scintillation counter (Beckman LS6500). […]

GluN1a/2B = target: T3, GluN1a/2B (Rattus norvegicus, UniProt P35439+Q00960); assay: Whole-cell current recording, NMDA receptor GluN1a/2B; format: cell-based
T3 construct: expressed in transfected cells; host or cells: HEK-293S
Description: as §1
as §2, with “GFP was used as a transfection marker for cell recording, and TAg was cotransfected to potentiate the receptor expression at the single-cell level^6. Transfected cells were allowed to grow for 48 hour before they were used for recording.” left out
as §3

GluA3 = target: T4, GluA3 (Rattus norvegicus, UniProt P19492); assay: Whole-cell current recording, GluA3; format: cell-based
T4 construct: expressed in transfected cells; host or cells: HEK-293S
Description: as §1
as §2, with “GFP was used as a transfection marker for cell recording, and TAg was cotransfected to potentiate the receptor expression at the single-cell level^6. Transfected cells were allowed to grow for 48 hour before they were used for recording.” left out
as §3

T1 sequence (P19491 22-883 isoform P19491-2): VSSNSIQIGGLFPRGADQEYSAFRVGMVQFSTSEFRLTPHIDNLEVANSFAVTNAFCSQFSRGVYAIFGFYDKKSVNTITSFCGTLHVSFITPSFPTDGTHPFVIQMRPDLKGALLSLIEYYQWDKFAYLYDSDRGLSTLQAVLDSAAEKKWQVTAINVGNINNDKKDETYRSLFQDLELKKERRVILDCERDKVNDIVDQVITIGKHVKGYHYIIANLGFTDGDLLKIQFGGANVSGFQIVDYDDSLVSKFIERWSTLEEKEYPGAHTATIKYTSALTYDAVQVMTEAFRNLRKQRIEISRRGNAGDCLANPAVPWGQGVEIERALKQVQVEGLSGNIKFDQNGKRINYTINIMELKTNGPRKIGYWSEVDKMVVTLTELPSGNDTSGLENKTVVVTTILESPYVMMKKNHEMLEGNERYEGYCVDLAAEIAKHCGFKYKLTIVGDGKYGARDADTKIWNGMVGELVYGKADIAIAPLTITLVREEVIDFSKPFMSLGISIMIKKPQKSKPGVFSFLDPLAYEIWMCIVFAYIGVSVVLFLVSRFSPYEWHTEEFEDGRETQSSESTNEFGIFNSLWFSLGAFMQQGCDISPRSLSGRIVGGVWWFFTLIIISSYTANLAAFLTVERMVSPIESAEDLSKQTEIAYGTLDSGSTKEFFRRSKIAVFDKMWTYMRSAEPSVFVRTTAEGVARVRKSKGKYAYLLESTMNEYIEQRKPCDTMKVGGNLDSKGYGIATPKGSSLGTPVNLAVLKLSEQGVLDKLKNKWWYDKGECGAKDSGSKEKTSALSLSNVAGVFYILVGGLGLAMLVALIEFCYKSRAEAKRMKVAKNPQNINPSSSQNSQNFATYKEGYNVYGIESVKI
T4 sequence (P19492 23-888): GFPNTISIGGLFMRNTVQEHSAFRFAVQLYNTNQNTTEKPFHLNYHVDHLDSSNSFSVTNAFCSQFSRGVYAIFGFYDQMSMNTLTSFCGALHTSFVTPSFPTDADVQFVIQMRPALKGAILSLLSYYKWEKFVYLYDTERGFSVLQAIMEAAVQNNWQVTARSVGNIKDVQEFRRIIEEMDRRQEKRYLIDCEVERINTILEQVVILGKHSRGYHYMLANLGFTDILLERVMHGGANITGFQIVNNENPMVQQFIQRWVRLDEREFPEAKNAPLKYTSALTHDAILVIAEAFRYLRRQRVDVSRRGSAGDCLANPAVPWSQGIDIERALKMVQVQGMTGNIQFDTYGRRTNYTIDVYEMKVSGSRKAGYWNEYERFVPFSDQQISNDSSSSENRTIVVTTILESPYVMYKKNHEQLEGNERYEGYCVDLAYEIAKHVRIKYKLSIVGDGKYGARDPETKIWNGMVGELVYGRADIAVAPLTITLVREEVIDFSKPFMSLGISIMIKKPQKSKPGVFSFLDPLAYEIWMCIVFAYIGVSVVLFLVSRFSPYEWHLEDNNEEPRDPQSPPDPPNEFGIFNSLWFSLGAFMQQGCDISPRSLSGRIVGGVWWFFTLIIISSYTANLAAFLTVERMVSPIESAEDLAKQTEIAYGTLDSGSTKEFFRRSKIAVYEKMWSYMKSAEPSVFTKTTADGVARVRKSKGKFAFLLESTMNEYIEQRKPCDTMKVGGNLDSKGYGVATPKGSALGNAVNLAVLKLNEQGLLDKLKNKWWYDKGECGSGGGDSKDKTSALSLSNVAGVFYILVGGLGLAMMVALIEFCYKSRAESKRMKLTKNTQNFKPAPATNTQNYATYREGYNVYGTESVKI
T2 sequence (P19490 19-907): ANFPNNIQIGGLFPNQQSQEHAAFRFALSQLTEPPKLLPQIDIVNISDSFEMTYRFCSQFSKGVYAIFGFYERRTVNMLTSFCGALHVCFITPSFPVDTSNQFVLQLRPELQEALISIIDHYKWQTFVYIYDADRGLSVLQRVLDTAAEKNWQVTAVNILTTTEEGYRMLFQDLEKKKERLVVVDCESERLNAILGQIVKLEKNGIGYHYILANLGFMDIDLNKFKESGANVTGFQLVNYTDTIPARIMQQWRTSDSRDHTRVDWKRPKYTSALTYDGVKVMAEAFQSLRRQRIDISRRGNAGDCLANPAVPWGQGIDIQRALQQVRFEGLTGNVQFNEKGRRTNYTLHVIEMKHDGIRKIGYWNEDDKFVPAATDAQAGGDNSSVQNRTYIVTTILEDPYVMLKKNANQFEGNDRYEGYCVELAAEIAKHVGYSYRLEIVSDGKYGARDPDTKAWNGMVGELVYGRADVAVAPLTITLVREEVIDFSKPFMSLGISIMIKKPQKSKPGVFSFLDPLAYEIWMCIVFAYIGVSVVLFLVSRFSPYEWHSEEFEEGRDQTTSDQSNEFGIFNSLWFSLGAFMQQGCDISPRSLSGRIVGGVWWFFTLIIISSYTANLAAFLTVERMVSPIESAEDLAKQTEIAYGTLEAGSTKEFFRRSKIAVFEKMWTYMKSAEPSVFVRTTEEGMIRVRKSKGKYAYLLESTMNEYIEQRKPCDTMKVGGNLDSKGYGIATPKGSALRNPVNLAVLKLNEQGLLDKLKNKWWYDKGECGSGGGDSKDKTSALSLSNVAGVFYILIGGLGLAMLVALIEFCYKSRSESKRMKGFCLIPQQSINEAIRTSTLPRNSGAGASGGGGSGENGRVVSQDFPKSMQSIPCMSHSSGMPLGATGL
T3 sequence (Q00960 27-1482, other chains not shown): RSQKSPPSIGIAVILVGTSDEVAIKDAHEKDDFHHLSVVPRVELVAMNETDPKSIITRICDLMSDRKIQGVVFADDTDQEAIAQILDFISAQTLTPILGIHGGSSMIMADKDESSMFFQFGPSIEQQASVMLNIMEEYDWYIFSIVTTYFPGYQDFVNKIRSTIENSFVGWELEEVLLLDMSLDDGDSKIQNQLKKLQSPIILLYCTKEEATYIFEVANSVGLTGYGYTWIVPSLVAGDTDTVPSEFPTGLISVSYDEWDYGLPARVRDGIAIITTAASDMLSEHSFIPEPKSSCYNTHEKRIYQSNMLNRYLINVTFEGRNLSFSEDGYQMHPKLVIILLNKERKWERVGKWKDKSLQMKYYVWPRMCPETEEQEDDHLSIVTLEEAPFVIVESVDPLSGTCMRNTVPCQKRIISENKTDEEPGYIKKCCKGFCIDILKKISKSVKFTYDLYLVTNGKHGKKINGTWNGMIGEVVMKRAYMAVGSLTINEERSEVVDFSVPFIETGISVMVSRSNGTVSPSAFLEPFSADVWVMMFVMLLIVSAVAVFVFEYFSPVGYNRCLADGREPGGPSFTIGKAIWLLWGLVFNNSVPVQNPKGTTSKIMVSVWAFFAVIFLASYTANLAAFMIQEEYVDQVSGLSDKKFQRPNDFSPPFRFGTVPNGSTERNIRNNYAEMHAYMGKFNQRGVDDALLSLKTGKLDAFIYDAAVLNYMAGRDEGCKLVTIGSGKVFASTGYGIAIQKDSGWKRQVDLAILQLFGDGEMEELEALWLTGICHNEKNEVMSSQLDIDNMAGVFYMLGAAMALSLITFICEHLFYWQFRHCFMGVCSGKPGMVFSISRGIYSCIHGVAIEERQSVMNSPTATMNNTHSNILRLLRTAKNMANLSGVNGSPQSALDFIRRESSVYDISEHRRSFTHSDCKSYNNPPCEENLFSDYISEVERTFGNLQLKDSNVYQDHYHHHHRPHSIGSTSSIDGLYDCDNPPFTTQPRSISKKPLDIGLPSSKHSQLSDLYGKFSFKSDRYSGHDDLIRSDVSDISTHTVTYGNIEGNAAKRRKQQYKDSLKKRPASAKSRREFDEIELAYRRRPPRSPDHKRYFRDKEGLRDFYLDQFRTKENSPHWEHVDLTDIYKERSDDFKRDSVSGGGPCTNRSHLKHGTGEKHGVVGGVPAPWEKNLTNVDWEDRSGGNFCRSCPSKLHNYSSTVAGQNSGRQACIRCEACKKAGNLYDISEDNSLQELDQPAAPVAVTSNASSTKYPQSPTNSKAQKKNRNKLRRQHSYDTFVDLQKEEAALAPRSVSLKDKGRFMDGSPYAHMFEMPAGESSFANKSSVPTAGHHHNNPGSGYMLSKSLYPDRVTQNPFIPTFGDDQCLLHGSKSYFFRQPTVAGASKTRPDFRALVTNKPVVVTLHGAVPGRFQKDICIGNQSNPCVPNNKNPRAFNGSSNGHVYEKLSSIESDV

AG56: 56-nucleotide truncated version of AG1407, RNA aptamer (GGGAGAUUGUGAAGCGUAGGCUCGAGUUUGUCCCGCGAGCCAAAGAUUCCAGACCC; RNA, backbone not given here)
inhibitory function of shorter versions of AG1407, based on A/A(I) (GluA2Qflip [1]; GluA2Qflip): functional sequence
inhibition of the open-channel conformation (GluA2Qflip [1]; GluA2Qflip, high glutamate concentration): selectively inhibited the open-channel
inhibition of the closed-channel conformation (GluA2Qflip [1]; GluA2Qflip, low glutamate concentration): did not inhibit
Ki (GluA2Qflip [1]; open-channel conformation of GluA2Qflip, 3 mM glutamate, read-out: inhibition constant): 950 ± 200 nM
inhibition of the closed-channel conformation (GluA1): no inhibitory effect
inhibition of the open-channel conformation (GluA1): similarly inhibited the open-channel conformation
Kd (GluA2Qflip [2]; open-channel conformation (1 mM kainate)): 80 ± 23 nM
Kd (GluA2Qflip [2]; unliganded, closed-channel conformation (without kainate)): 68 ± 40 nM
effect on NMDA receptor channel (GluN1a/2B): did not affect
inhibition of the closed-channel conformation (GluA3): no inhibitory effect
inhibition of the open-channel conformation (GluA3): similarly inhibited the open-channel conformation
